One assay addresses T1, Aromatase (Homo sapiens, UniProt P11511).
T1 sequence (P11511 whole entry): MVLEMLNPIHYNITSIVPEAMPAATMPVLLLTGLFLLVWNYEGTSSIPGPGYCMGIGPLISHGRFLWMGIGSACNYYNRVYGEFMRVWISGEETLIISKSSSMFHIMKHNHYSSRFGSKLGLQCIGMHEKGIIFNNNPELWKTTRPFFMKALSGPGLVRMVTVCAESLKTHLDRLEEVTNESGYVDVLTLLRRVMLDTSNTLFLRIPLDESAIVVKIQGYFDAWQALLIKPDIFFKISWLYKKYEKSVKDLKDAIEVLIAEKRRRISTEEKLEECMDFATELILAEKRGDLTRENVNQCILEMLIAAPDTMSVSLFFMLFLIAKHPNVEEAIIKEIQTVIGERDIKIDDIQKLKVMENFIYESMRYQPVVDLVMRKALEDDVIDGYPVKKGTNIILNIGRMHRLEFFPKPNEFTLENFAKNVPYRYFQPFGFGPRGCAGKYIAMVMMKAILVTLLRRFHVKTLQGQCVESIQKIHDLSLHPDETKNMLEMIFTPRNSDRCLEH

A further assay has as its system MCF7. As to the kind of experiment: Cytotoxicity against human MCF7 cells after 72 hrs by SRB assay. The class given is functional, cell-based. The following applies: MCF7, 72 h. For orientation: In SRB staining, fixed cells bind dye roughly in proportion to their protein.

We go through six molecules from ChEMBL document CHEMBL2429769, “Synthesis and bioconversions of formestane” (J Nat Prod, 2013).

Description for Aromatase: Inhibition of aromatase (unknown origin) using dibenzylfluorescein as substrate after 30 mins by fluorescence assay

As to `C[C@]12CC[C@H]3[C@@H](CC[C@@]4(O)[C@@H](O)C(=O)CC[C@]34C)[C@@H]1CCC2=O`, the IC50 (commonly the concentration needed to halve the response being measured) amounted to 29.1 µM against Aromatase and 15 µM in the assay with MCF7.
The corresponding values for `C[C@]12CC[C@H]3[C@@H](CCC4=C(O)C(=O)CC[C@@]43C)[C@@H]1CC[C@@H]2O` are 47 µM and 16.5 µM.
In the case of `C[C@]12C[C@@H](O)[C@H]3[C@@H](CCC4=C(O)C(=O)CC[C@@]43C)[C@@H]1CC[C@@H]2O`, the IC50 at Aromatase worked out at 10.9 µM; in the assay with MCF7 it was 12.5 µM.
As to `C[C@]12CC[C@@H](O)C(=O)[C@H]1CC[C@@H]1[C@@H]2CC[C@]2(C)[C@@H](O)CC[C@@H]12` [3ALPHA,17BETA-DIHYDROXY-5BETA-ANDROSTAN-4-ONE], the IC50 against Aromatase is 3.9 µM; with MCF7 it was 16.4 µM.
With `C[C@]12CCC(=O)C(O)=C1CC[C@@H]1[C@@H]2CC[C@]2(C)C(=O)CC[C@@H]12` [FORMESTANE], the figures for the IC50 against Aromatase and in the assay with MCF7 were 58.6 µM and 20 µM, respectively.
For the molecule `CC[C@]1(O)C[C@@H]2CN(CCc3c([nH]c4ccccc34)[C@@](C(=O)OC)(c3cc4c(cc3OC)N(C)[C@H]3[C@@](O)(C(=O)OC)[C@H](OC(C)=O)[C@]5(CC)C=CCN6CC[C@]43[C@@H]65)C2)C1` [VINBLASTINE], the IC50 in the assay with MCF7 amounted to 0.0109 µM.
